In test [1] the test system is U2OS cells. In words: UV-induced apoptosis in quiescent U2OS cells (Annexin V / 7-AAD FACS). It counts as cell-based, human. As to conditions: UV 2 mJ·cm-2; 24 h after UV; harmine 10 μM, INDY 25 μM. The protocol: (§1) U2OS were cultured in DMEM, high glucose GlutaMAX Supplement, Pyruvate (Thermo Fisher Scientific, 31966047) with 10% fetal bovine serum (FBS; Biochrom GmbH, S0615) and 1% Penicillin-Streptomycin (Thermo Fisher Scientific, 15140112). Cells were kept at 37° C. in a 5% CO2 incubator (Binder). Cell dissociation from the plates was performed with Accutase (Sigma, A6964). Cells were cultivated in FBS-free medium for 48 hours before genotoxic treatment were applied. […] Before the genotoxic treatment, cells were washed with FBS-free medium. For the UV treatment, medium was removed from the plates and cells were irradiated using 254 nm UV-C light Phillips UV6 bulbs. The MMS treatment was performed by adding MMS at 2 mM for 2 hours, followed by 3 washes with FBS-free medium. Quantification via FACS of cell death and apoptosis was performed 24 hours after genotoxic treatment.
(§2) Collected cells were incubated in Annexin V Binding buffer (BioLegend, 422201) with Pacific Blue Annexin V (BioLegend, 640917) and 7-AAD (Thermo Fisher Scientific, 00699350) at 4° C. for 15 minutes. Cells were measured using a MACSQuant VYB (Miltenyi Biotec) and analyzed using FlowJo (BD).

For the next test, the system named is DREAM target genes. In words: RNA-seq of quiescent (serum-starved) U2OS cells treated with DYRK1A inhibitors. Format: cell-based, human. As to conditions: 24 h treatment, harmine 10 μM, INDY 25 μM; for number of the 67 DNA repair genes bound by DREAM that were upregulated: FDR<0.01. The method, then:
as §1
For the qPCRs and RNA-seq on L1 worms, around 10.000 (qPCR) or 40.000 (RNA-seq) bleach-synchronized L1 worms in triplicates (qPCR) or quadruplicates (RNA-seq) per strain and condition were placed in seeded NGM plates and left at 20° C. for 3 hours. Posteriorly, they were irradiated with a 310 nm UV-B light Philips UV6 bulb in a Waldmann UV236B irradiation device or left unirradiated, and left for 6 more hours to allow the DNA damage related transcriptional changes to be taking place. After this, worms were collected, washed three times with M9 buffer, and the pellet was placed in a tube containing 1 ml of TRIzol™ (Invitrogen, 15596018) and 1 mm zirconia/silica beads (Biospec Products, 11079110z). To extract the RNA, worms were first disrupted with a Precellys24 (Bertin Instruments, P000669-PR240-A), and then the RNA isolation was performed by using the RNeasy Mini Kit (QIAGEN, 74106) following the manufacturer's specifications, except for the use of 1-bromo-3-chloropropane (Sigma, B9673) instead of chloroform. The RNA was quantified using NanoDrop™ 8000 (ThermoFisher, ND-8000-GL). […] Cells were disrupted with RLT buffer and homogenized with QIAshredder spin columns (QIAGEN, 79656).
The human RNA-seq data were processed with Salmon-1.1 (Patro et al., 2017) against a decoy-aware transcriptome (gencode.v37 transcripts and the GRCh38.primary_assembly genome) with the following parameter: --validateMappings -gcBias -seqBias. The output was imported and summarized to the gene-level with tximport (1.14.2) (Soneson, Love and Robinson, 2016) and differential gene analysis was done with edgeR (3.28.1) (Robinson, McCarthy and Smyth, 2009).

Test [2] relates to U2OS cells. Briefly: MMS-induced apoptosis in quiescent U2OS cells (Annexin V / 7-AAD FACS). Format: cell-based, human. As to conditions: MMS 2 mM for 2 hours; 24 h after treatment; harmine 10 μM, INDY 25 μM. The protocol: as §1, §2
For test [3], the system named is U2OS cells. In words: DNA repair kinetics in U2OS cells, γH2AX antibody staining after UV. Format: cell-based, human. The conditions noted are these: quiescent cells, hours after UV; harmine 10 μM, INDY 25 μM.
Procedure: Before the genotoxic treatment, cells are washed with FBS-free medium. For the UV treatment, medium is removed from the plates and cells are irradiated using 254 nm UV-C light Phillips UV6 bulbs. The MMS treatment is performed, e.g., by adding MMS at 2 mM for 2 hours, followed by 3 washes with FBS-free medium. Cells are fixed in a solution comprising PFA on HistoBond+ Adhesion Microscope Slides (Marienfeld, 0810461). To estimate the total amount of DNA damage per cell, the fixed cells are incubated overnight at 4° C. in PBS comprising anti-γH2AX antibody (Mouse anti-phospho-Histone H2A.X (Ser139), clone JBW301, Millipore, Cat #: 05-636), then washed 5 times 10 minutes in a suitable buffer at RT, prior to incubation for at least two hours with a secondary antibody. Finally, the slides are washed another 5 times 10 minutes in PBS-T and dried overnight. The next morning, slides are sealed with a cover slip.
The next test concerns the target DYRK1A kinase (Homo sapiens, UniProt Q13627). The conditions noted are these: cited from earlier work.
The target in test [4] is T1, monoamine oxidase A (MAOA) (Homo sapiens, UniProt P21397).
T1 sequence (P21397 1-527): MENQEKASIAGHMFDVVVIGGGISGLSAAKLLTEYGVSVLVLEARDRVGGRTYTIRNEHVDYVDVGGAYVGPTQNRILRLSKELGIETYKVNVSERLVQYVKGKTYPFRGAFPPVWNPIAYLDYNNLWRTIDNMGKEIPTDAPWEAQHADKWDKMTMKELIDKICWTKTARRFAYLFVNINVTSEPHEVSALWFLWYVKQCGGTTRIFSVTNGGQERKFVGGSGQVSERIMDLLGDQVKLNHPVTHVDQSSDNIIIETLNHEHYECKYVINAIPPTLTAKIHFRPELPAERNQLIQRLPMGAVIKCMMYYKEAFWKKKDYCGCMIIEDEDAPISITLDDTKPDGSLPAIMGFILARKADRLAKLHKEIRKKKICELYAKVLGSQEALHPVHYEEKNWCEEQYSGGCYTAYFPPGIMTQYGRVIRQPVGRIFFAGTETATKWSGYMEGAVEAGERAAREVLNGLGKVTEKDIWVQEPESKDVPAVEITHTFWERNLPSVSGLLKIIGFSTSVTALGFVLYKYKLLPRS
As to conditions: cited from earlier work.

In the next test the test system is Ercc1−/− mice. In words: Photoreceptor cell loss in Ercc1 knockout mouse model of premature aging (TUNEL staining of retina). Format: in vivo. The conditions noted are these: 10 mg/kg i.p. 3 times/week from P3, retina at P15. An excerpt:
Mice were sacrificed at postnatal day P15 for retina tissue isolation. Tissues were embedded in optimal cutting temperature (OCT) compound, cryosectioned and stained using in situ cell detection kit (TUNEL staining) (11684817910, Roche).

Test [5] concerns Podocyte-specific Ercc1 knockout mice. Briefly: Kidney function (proteinuria) in podocyte-specific Ercc1 knockout mice. It counts as in vivo, mouse. The conditions noted are these: 10 mg/kg/day for 4 weeks from 3 weeks of age; urine 8 and 11 days afterwards. The protocol: Proteinuria as endpoint for kidney dysfunction was assessed by Coomassie brilliant blue staining in urine 8 days (FIG. 7A) and 11 days (FIG. 7B) afterwards.
Proteinuria as endpoint for kidney dysfunction was assessed in urine 8 days and 11 days afterwards by assessing overall protein levels in urine samples via Coomassie brilliant blue staining after electrophoretic separation in a polyacrylamide gel.

For `CCN1/C(=C/C(C)=O)Sc2ccc(O)cc21` [INDY, (1Z)-1-(3-ethyl-5-hydroxy-2(3H)-benzothiazoylidene)-2-propanone], the “UV-induced apoptosis (annexin V positive + annexin V/7-AAD positive cells) vs mock treated cells” value in the test with U2OS cells [1] is “highly significant reduction in UV-induced apoptosis”. Moreover, in the test on DREAM target genes, the “expression of DREAM target genes” value is reported as “upregulation of DREAM target genes” and the “number of the 67 DNA repair genes bound by DREAM that were upregulated” value came out at 46. In addition, the “resistance to MMS (apoptotic cells)” value in the test on U2OS cells [2] is given as “boosted the resistance to the alkylating agent MMS”. In the test on U2OS cells [3], the “γH2AX amount after UV irradiation vs control cells” value is “significantly lower amounts of γH2AX”. Further, the “DYRK1A inhibition, selectivity” value at DYRK1A kinase is “highly selective DYRK1A inhibitor”.
For the compound `COc1ccc2c(c1)[nH]c1c(C)nccc12` [harmine], the “UV-induced apoptosis (annexin V positive + annexin V/7-AAD positive cells) vs mock treated cells” value in the test on U2OS cells [1] is on record as “highly significant reduction in UV-induced apoptosis”. The MAOA inhibition entry in test [4] is reported as “could also inhibit monoamine oxidase A (MAOA)”. Also, in the test on DREAM target genes, the “expression of DREAM target genes” value is given as “upregulation of DREAM target genes” and the “number of the 67 DNA repair genes bound by DREAM that were upregulated” value is 58. Besides, the “apoptosis in photoreceptor cells (TUNEL)” value in the test with Ercc1−/− mice is “prevented apoptosis in photoreceptor cells”. In addition, the “proteinuria (Coomassie staining of urine)” value in test [5] is on record as “mitigation of proteinuria”. The “resistance to MMS (apoptotic cells)” value with U2OS cells [2] is on record as “boosted the resistance to the alkylating agent MMS”.

The values are drawn from patent US20230057309A1, “Inhibitors of DREAM Complex Assembly and/or Function For Use In Repairing DNA Damage” (priority 2021, published 2023).
